Measurements from patent US20090311237A1, “Combination therapy using a soluble hyaluronidase and a bisphosphonate” (priority 2008, published 2009).
Like-named read-outs stand apart in the source and are kept apart here.

Test: Pharmacokinetics of ZA in pig serum after IV or SC infusion with or without rHuPH20 (LC-MS-MS, non-compartmental analysis)
Type: in vivo
Conditions: ZA […], rHuPH20 0 U/mL
Protocol: A pharmacokinetic study of zoledronic acid (ZA) co-administered with rHuPH20 in female Yorkshire swines was conducted. The primary objective of the study was to determine the bioavailability of zoledronic acid dosed via subcutaneous (SC) co-administration with human recombinant hyaluronidase PH20 (rHuPH20) and to compare the overall exposure to an equivalent IV dose.
Animals in Study Group 1 were dosed with 0.15 mg/kg ZA given via a 20-minute IV infusion. Animals in Study Groups 2 and 3 were dosed subcutaneously (SC) with 0.15 mg/kg ZA without and with rHuPH20, respectively, in different SC delivery volumes.
Following ZA dose administration, serial blood samples were collected via vascular access ports (VAPs) for serum preparation and determination of ZA concentrations. Blood collection times were at 1, 3, 5, 10, 15, 20, 30, 45, and 60 minutes, and at 1.5, 2, 3, 4, 6, 8, 10, 24, 48, and 72 hours post dose. Urine samples were also collected to compare excretion characteristics between IV and SC routes of administration. Collection times for urine were at 15 minutes before dosing (−15 min.), continuously from dose initiation to 2 hours post dose, and at 4, 6, 8, and 24 hours post dose thereafter.
Serum concentration of ZA was determined using a qualified LC-MS-MS assay after derivatization with diazomethane (Zhu, L S et al. (2006) Rapid Commun. Mass Spectrom. 20: 3421-3426; “Qualification Data of An LC-MS/MS Method for the Determination of Zoledronate in Porcine Serum”, MDS Pharma Services Study No. AA43671-01, Report Date 14 Sep. 2007). The assay range was from 2.0 to 400 ng/mL with a lower limit of quantitation (LLOQ) at 2.0 ng/mL. Urine concentration of ZA was determined by a similar well qualified LC-MS-MS method (“Qualification Data of An LC-MS/MS Method for the Determination of Zoledronate in Porcine Urine”, MDS Pharma Services Study No. AA43671-02, Report Date 14 Sep. 2007) with an assay LLOQ at 10 ng/mL.
Pharmacokinetic (PK) analyses of ZA serum concentration versus time data were conducted using WinNonlin v5.1 (Pharsight, Mountain View, Calif.). Non-compartmental analysis was used for derivation of primary and secondary pharmacokinetic (PK) parameters. AUC, Cmax, and Tmax were compared between dose routes, between co-administration with rHuPH20, and with dose of rHuPH20.

[1] = female, Yorkshire, pig, serum, intravenous, […], animal ID 57, Study Group 1, IV 20 min infusion, read-out: Zoledronic Acid Serum Concentration
[2] = female, Yorkshire, pig, serum, intravenous, […], animal ID 61, Study Group 1, IV 20 min infusion, read-out: Zoledronic Acid Serum Concentration

O=P(O)(O)C(O)(Cn1ccnc1)P(=O)(O)O [ZA, 1-hydroxy-2-(1H-imidazol-1-yl)ethylidene-1,1-bisphosphonic acid]
Zoledronic Acid Serum Concentration (Time 6 h, pig ID 59, Study Group 2, SC, 100 mL, 16 min): BLQ (BLQ = below assay limit of quantification (2.0 ng/mL)) | Zoledronic Acid Serum Concentration (Time 8 h, pig ID 59, Study Group 2, SC, 100 mL, 16 min): BLQ (BLQ = below assay limit of quantification (2.0 ng/mL)) | Zoledronic Acid Serum Concentration (Time 8 h, pig ID 60, Study Group 2, SC, 100 mL, 16 min): BLQ (BLQ = below assay limit of quantification (2.0 ng/mL)) | Zoledronic Acid Serum Concentration (Time 8 h, pig ID 62, Study Group 2, SC, 50 mL, 8 min): BLQ (BLQ = below assay limit of quantification (2.0 ng/mL)) | Zoledronic Acid Serum Concentration (Time 8 h, pig ID 69, Study Group 2, SC, 25 mL, 4 min): BLQ (BLQ = below assay limit of quantification (2.0 ng/mL)) | Zoledronic Acid Serum Concentration (Time 10 h, pig ID 59, Study Group 2, SC, 100 mL, 16 min): BLQ (BLQ = below assay limit of quantification (2.0 ng/mL)) | Zoledronic Acid Serum Concentration (Time 10 h, pig ID 60, Study Group 2, SC, 100 mL, 16 min): BLQ (BLQ = below assay limit of quantification (2.0 ng/mL)) | Zoledronic Acid Serum Concentration (Time 10 h, pig ID 62, Study Group 2, SC, 50 mL, 8 min): BLQ (BLQ = below assay limit of quantification (2.0 ng/mL)) | Zoledronic Acid Serum Concentration (Time 10 h, pig ID 69, Study Group 2, SC, 25 mL, 4 min): BLQ (BLQ = below assay limit of quantification (2.0 ng/mL)) | Zoledronic Acid Serum Concentration (Time 10 h, pig ID 70, Study Group 2, SC, 10 mL, 1.6 min): BLQ (BLQ = below assay limit of quantification (2.0 ng/mL)) | Zoledronic Acid Serum Concentration (Time 24 h, pig ID 59, Study Group 2, SC, 100 mL, 16 min): BLQ (BLQ = below assay limit of quantification (2.0 ng/mL)) | Zoledronic Acid Serum Concentration (Time 24 h, pig ID 60, Study Group 2, SC, 100 mL, 16 min): BLQ (BLQ = below assay limit of quantification (2.0 ng/mL)) | Zoledronic Acid Serum Concentration (Time 24 h, pig ID 62, Study Group 2, SC, 50 mL, 8 min): BLQ (BLQ = below assay limit of quantification (2.0 ng/mL)) | Zoledronic Acid Serum Concentration (Time 24 h, pig ID 69, Study Group 2, SC, 25 mL, 4 min): BLQ (BLQ = below assay limit of quantification (2.0 ng/mL)) | Zoledronic Acid Serum Concentration (Time 24 h, pig ID 70, Study Group 2, SC, 10 mL, 1.6 min): BLQ (BLQ = below assay limit of quantification (2.0 ng/mL)) | Zoledronic Acid Serum Concentration (Time 48 h, pig ID 59, Study Group 2, SC, 100 mL, 16 min): BLQ (BLQ = below assay limit of quantification (2.0 ng/mL)) | Zoledronic Acid Serum Concentration (Time 48 h, pig ID 60, Study Group 2, SC, 100 mL, 16 min): BLQ (BLQ = below assay limit of quantification (2.0 ng/mL)) | Zoledronic Acid Serum Concentration (Time 48 h, pig ID 62, Study Group 2, SC, 50 mL, 8 min): BLQ (BLQ = below assay limit of quantification (2.0 ng/mL)) | Zoledronic Acid Serum Concentration (Time 48 h, pig ID 69, Study Group 2, SC, 25 mL, 4 min): BLQ (BLQ = below assay limit of quantification (2.0 ng/mL)) | Zoledronic Acid Serum Concentration (Time 48 h, pig ID 70, Study Group 2, SC, 10 mL, 1.6 min): BLQ (BLQ = below assay limit of quantification (2.0 ng/mL)) | Zoledronic Acid Serum Concentration (Time 72 h, pig ID 59, Study Group 2, SC, 100 mL, 16 min): BLQ (BLQ = below assay limit of quantification (2.0 ng/mL)) | Zoledronic Acid Serum Concentration (Time 72 h, pig ID 60, Study Group 2, SC, 100 mL, 16 min): BLQ (BLQ = below assay limit of quantification (2.0 ng/mL)) | Zoledronic Acid Serum Concentration (Time 72 h, pig ID 62, Study Group 2, SC, 50 mL, 8 min): BLQ (BLQ = below assay limit of quantification (2.0 ng/mL)) | Zoledronic Acid Serum Concentration (Time 72 h, pig ID 69, Study Group 2, SC, 25 mL, 4 min): BLQ (BLQ = below assay limit of quantification (2.0 ng/mL)) | Zoledronic Acid Serum Concentration (Time 72 h, pig ID 70, Study Group 2, SC, 10 mL, 1.6 min): BLQ (BLQ = below assay limit of quantification (2.0 ng/mL)) | Zoledronic Acid Serum Concentration (Time […], pig ID 60, Study Group 2, SC, 100 mL, 16 min): BLQ (BLQ = below assay limit of quantification (2.0 ng/mL)) | Zoledronic Acid Serum Concentration (Time […], pig ID 62, Study Group 2, SC, 50 mL, 8 min): BLQ (BLQ = below assay limit of quantification (2.0 ng/mL)) | Zoledronic Acid Serum Concentration (Time […], pig ID 69, Study Group 2, SC, 25 mL, 4 min): BLQ (BLQ = below assay limit of quantification (2.0 ng/mL)) | Zoledronic Acid Serum Concentration (Time […], pig ID 70, Study Group 2, SC, 10 mL, 1.6 min): BLQ (BLQ = below assay limit of quantification (2.0 ng/mL)) | Zoledronic Acid Serum Concentration (animal ID 57, Study Group 1, IV 20 min infusion, time 6 h): BLQ^a (BLQ = below assay limit of quantification (2.0 ng/mL)) | Zoledronic Acid Serum Concentration (animal ID 57, Study Group 1, IV 20 min infusion, time 8 h): BLQ (BLQ = below assay limit of quantification (2.0 ng/mL)) | Zoledronic Acid Serum Concentration (animal ID 57, Study Group 1, IV 20 min infusion, time 10 h): BLQ (BLQ = below assay limit of quantification (2.0 ng/mL)) | Zoledronic Acid Serum Concentration (animal ID 57, Study Group 1, IV 20 min infusion, time 24 h): BLQ (BLQ = below assay limit of quantification (2.0 ng/mL)) | Zoledronic Acid Serum Concentration (animal ID 57, Study Group 1, IV 20 min infusion, time 48 h): BLQ (BLQ = below assay limit of quantification (2.0 ng/mL)) | Zoledronic Acid Serum Concentration (animal ID 57, Study Group 1, IV 20 min infusion, time 72 h): BLQ (BLQ = below assay limit of quantification (2.0 ng/mL)) | Zoledronic Acid Serum Concentration (animal ID 57, Study Group 1, IV 20 min infusion, time […]): BLQ (BLQ = below assay limit of quantification (2.0 ng/mL)) | Zoledronic Acid Serum Concentration (animal ID 61, Study Group 1, IV 20 min infusion, time 6 h): BLQ (BLQ = below assay limit of quantification (2.0 ng/mL)) | Zoledronic Acid Serum Concentration (animal ID 61, Study Group 1, IV 20 min infusion, time 8 h): BLQ (BLQ = below assay limit of quantification (2.0 ng/mL)) | Zoledronic Acid Serum Concentration (animal ID 61, Study Group 1, IV 20 min infusion, time 10 h): BLQ (BLQ = below assay limit of quantification (2.0 ng/mL)) | Zoledronic Acid Serum Concentration (animal ID 61, Study Group 1, IV 20 min infusion, time 24 h): BLQ (BLQ = below assay limit of quantification (2.0 ng/mL)) | Zoledronic Acid Serum Concentration (animal ID 61, Study Group 1, IV 20 min infusion, time 48 h): BLQ (BLQ = below assay limit of quantification (2.0 ng/mL)) | Zoledronic Acid Serum Concentration (animal ID 61, Study Group 1, IV 20 min infusion, time 72 h): BLQ (BLQ = below assay limit of quantification (2.0 ng/mL)) | Zoledronic Acid Serum Concentration (animal ID 61, Study Group 1, IV 20 min infusion, time […]): BLQ (BLQ = below assay limit of quantification (2.0 ng/mL)) | Zoledronic Acid Serum Concentration (animal ID 67, Study Group 1, IV 20 min infusion, time 6 h): BLQ (BLQ = below assay limit of quantification (2.0 ng/mL)) | Zoledronic Acid Serum Concentration (animal ID 67, Study Group 1, IV 20 min infusion, time 8 h): BLQ (BLQ = below assay limit of quantification (2.0 ng/mL)) | Zoledronic Acid Serum Concentration (animal ID 67, Study Group 1, IV 20 min infusion, time 10 h): BLQ (BLQ = below assay limit of quantification (2.0 ng/mL)) | Zoledronic Acid Serum Concentration (animal ID 67, Study Group 1, IV 20 min infusion, time 24 h): BLQ (BLQ = below assay limit of quantification (2.0 ng/mL)) | Zoledronic Acid Serum Concentration (animal ID 67, Study Group 1, IV 20 min infusion, time 48 h): BLQ (BLQ = below assay limit of quantification (2.0 ng/mL)) | Zoledronic Acid Serum Concentration (animal ID 67, Study Group 1, IV 20 min infusion, time 72 h): BLQ (BLQ = below assay limit of quantification (2.0 ng/mL)) | Zoledronic Acid Serum Concentration (animal ID 67, Study Group 1, IV 20 min infusion, time […]): BLQ (BLQ = below assay limit of quantification (2.0 ng/mL)) | concentration at 0.016 h [1]: 255 ng/mL | concentration at 0.05 h [1]: 446 ng/mL | concentration at 0.333 h [1]: 388 ng/mL | concentration at 0.5 h (female, Yorkshire, pig, serum, intravenous, […], animal ID 57, Study Group 1, IV 20 min infusion, time 0.50 h, read-out: Zoledronic Acid Serum Concentration): 244 ng/mL | concentration at 1 h (female, Yorkshire, pig, serum, intravenous, […], animal ID 57, Study Group 1, IV 20 min infusion, time 1.00 h, read-out: Zoledronic Acid Serum Concentration): 71.4 ng/mL | concentration at 2 h (female, Yorkshire, pig, serum, intravenous, […], animal ID 57, Study Group 1, IV 20 min infusion, time 2 h, read-out: Zoledronic Acid Serum Concentration): 15.4 ng/mL | concentration at 3 h (female, Yorkshire, pig, serum, intravenous, […], animal ID 57, Study Group 1, IV 20 min infusion, time 3 h, read-out: Zoledronic Acid Serum Concentration): 5.8 ng/mL | concentration at 4 h (female, Yorkshire, pig, serum, intravenous, […], animal ID 57, Study Group 1, IV 20 min infusion, time 4 h, read-out: Zoledronic Acid Serum Concentration): 2.8 ng/mL | concentration at 0.016 h [2]: 254 ng/mL | concentration at 0.05 h [2]: 196 ng/mL | concentration at 0.333 h [2]: 596 ng/mL | concentration at 0.5 h (female, Yorkshire, pig, serum, intravenous, […], animal ID 61, Study Group 1, IV 20 min infusion, time 0.5 h, read-out: Zoledronic Acid Serum Concentration): 299 ng/mL | concentration at 1 h (female, Yorkshire, pig, serum, intravenous, […], animal ID 61, Study Group 1, IV 20 min infusion, time 1 h, read-out: Zoledronic Acid Serum Concentration): 85.5 ng/mL
